Patent publication US10124059B2, “Dimeric scaffold peptides comprising HIV-1 GP120 and GP41 epitopes” (priority 2011, dated 2018)
Ends that are not written are not given here.

Legend:
[1] = tested on: New Zealand White female rabbits; experiment: Rabbit immunizations with BI400-B vaccine, direct ELISA of sera; type: in vivo
Procedure: New Zealand White female rabbits (n=3) was immunized intradermally at weeks 0, 2 & 6 with 1 ml of BI400-B vaccine consisting of 500 μg BI400-B in 50% V/V Freund's adjuvant (i.e. Complete Freund's adjuvant used for priming, followed by boostings with Incomplete Freund's adjuvant). Individual blood serum was isolated for ELISA.
50-100 μl of BI400-B (pre-incubated in Coating buffer—0.05M Na2CO3 pH9.6; denoted CB—in cold at 16 μg/ml for each peptide 1-3 days prior to coating) or just CB (background control) is used for coating wells in microtiter plates at 4° C. overnight. The microtiter plates are then washed 3× with washing buffer (PBS+1% v/v Triton-X100; denoted WB), followed by 2 h blocking at room temperature (RT) with 200 μl/well of blocking buffer (PBS+1% w/v BSA). Plates are then washed 3× with WB, followed by 1 h incubation at 37° C. with 50-70 ul/well of added human (or rabbit) sera (serial dilutions ranging from 1:1-1:250 in dilution buffer (PBS+1% v/v Triton-X100+1% w/v BSA; denoted DB)). Plates are then washed 6× with WB, followed by 1 h incubation at RT with 70 μl/well of Alkaline Phosphatase-conjugated Protein G (3 μg/ml in DB; Calbiochem 539305). […] Plates are finally quenched by adding 100 μl/well of Quench solution (0.1M TRIS+0.1M EDTA+0.5M NaOH+0.01% w/v NaN3; pH14), followed by ELISA reader (ASYS UVM 340) at 550 nm.

BALB/c mice = experiment: Serum IgG ELISA after vaccination of BALB/c mice; type: in vivo
Procedure: 100 μl of antigen as indicated (pre-incubated in Coating buffer—0.05M Na2CO3 pH9.6; denoted CB—in cold at 8 μg/ml 1-3 days) or just CB (background control) was used for coating wells in microtiter plates at 4° C. The microtiter plates are then washed 3× with washing buffer (PBS+1% v/v Triton-X100; denoted WB), followed by 2 h blocking at room temperature (RT) with 200 μl/well of blocking buffer (PBS+1% w/v BSA). Plates are then washed 3× with WB, followed by 1 h incubation at 37° C. with 50-70 ul/well of added human (or rabbit or sheep) sera (serial dilutions ranging from 1:5-1:250 in dilution buffer (PBS+1% v/v Triton-X100+1% w/v BSA; denoted DB)). […] Plates are finally quenched by adding 100 μl/well of Quench solution (0.1M TRIS+0.1M EDTA+0.5M NaOH+0.01% w/v NaN3; pH14), followed by a measurement with a ELISA reader (ASYS UVM 340) at 550 nm. […]

sheep = experiment: Serum IgG ELISA after vaccination of sheep; type: in vivo; details: for Dilution of serum three times background IgG response directed against BI100-cg2 antigen: 500 μg peptide in PBS; for Immune response in vaccinated sheep (in words): by itself or with two different standard adjuvants
Procedure: 100 μl of antigen as indicated (pre-incubated in Coating buffer—0.05M Na2CO3 pH9.6; denoted CB—in cold at 8 μg/ml 1-3 days) or just CB (background control) was used for coating wells in microtiter plates at 4° C. The microtiter plates are then washed 3× with washing buffer (PBS+1% v/v Triton-X100; denoted WB), followed by 2 h blocking at room temperature (RT) with 200 μl/well of blocking buffer (PBS+1% w/v BSA). Plates are then washed 3× with WB, followed by 1 h incubation at 37° C. with 50-70 ul/well of added human (or rabbit or sheep) sera (serial dilutions ranging from 1:5-1:250 in dilution buffer (PBS+1% v/v Triton-X100+1% w/v BSA; denoted DB)). Plates are then washed 6× with WB, followed by 1 h incubation at RT with 70 μl/well of Alkaline Phosphatase-conjugated Protein G (3 μg/ml in DB; Calbiochem 539305) or goat anti-mouse IgG biotin (1 μg/ml, Southern Biotech, 1030-08. In case of the goat anti-mouse IgG biotin, the plates were washed one extra step as described, before addition of 100 μl Streptavidin-Alkaline-Phosphatase (1 μg/ml, Sigma Aldrich, S289) and incubated 1 hour at RT. Plates are then washed 6× with WB, followed by 10-60 min incubation at room temperature with 100 μl/well of 0.3% w/v of Phenophtalein monophosphate (Sigma P-5758). Plates are finally quenched by adding 100 μl/well of Quench solution (0.1M TRIS+0.1M EDTA+0.5M NaOH+0.01% w/v NaN3; pH14), followed by a measurement with a ELISA reader (ASYS UVM 340) at 550 nm. The strength of the sera, i.e. the magnitude of the humoral immune response, is then reported as the dilution of sera that result in the described Optical Density (OD) value, or the OD value at the indicated dilution of sera.
The vaccination of sheep was done with 500 μg of peptide in PBS with the following adjuvants: ISA51 (vaccination week 1, 2, 3, 4, serum from week 6) and Freunds Adjuvant (vaccination weeks 1, 12, 26, serum from week 28). […] This indicate that the constructs can be combined with different adjuvants and induce an IgG response, a signal that an immunological memory has been elicited in sheep.

human PBMC = experiment: Influenza specific M2e response by ELISPOT assay (B cell response in stimulated PBMC); type: cell-based
[2] = Freunds Adjuvant, vaccination weeks 1, 12, 26, serum from week 28
[3] = ISA51, vaccination week 1, 2, 3, 4, serum from week 6

Substance	Dilution of serum three times background IgG response directed against BI100-cg2 antigen (sheep; [2])	Dilution of serum three times background IgG response directed against BI100-cg2 antigen (sheep; [3])	Dilution of serum three times background IgG response directed against BI100-cg2 antigen (sheep; adjuvant None)	Immune response in vaccinated sheep (in words) (sheep)	also measured
GAKRRVVGGCGGAKRRVVQREKRAGEREKRA (SEQ ID NO: 121) | GKGGIEEEGGRDRDRGGEQDRDR (SEQ ID NO: 122) (thioether (positions not given here); not fully specified (bridges)) [BI400-B, peptides linked via Cys and Lys residues (thioether)]					Character of antibodies generated in animal models (in words) ([1]; animal models): comparable with antibodies elicited in natural HIV infection; Antibody response after immunization (in words) ([1]; rabbits, intradermal 500 μg in Freund's adjuvant at weeks 0, 2 & 6): elicit an efficient antibody response
RRGNWAKVLKNWAKVI (SEQ ID NO: 130) | RRGLLADARVGCGSGADRVCS (SEQ ID NO: 131) (linker (positions not given here) via sulpho‑SMCC; also: sulpho-SMCC linker between Lys and Cys, places not given here) [BI350-1mod1, lysine of first peptide linked to cysteine of second peptide by a sulpho-SMCC linker]					Immune response in vaccinated mice (in words) (BALB/c mice; IgG specific): induced a specific immune response; Serum IgG response (OD) directed against vaccine antigen, Mean (n = 6) (BALB/c mice; s.c. 100 μg peptide + Alhydrogel at weeks 1, 3, 7, serum from week 9): 0.26 OD
[RR][SL(Nle)TDIETP][GCG][IDTPIR][G][TPIBQDWG] [BI100-CG]	11000	125	25	induced an immune response	
[R][SLZTDIETP][Dpr(Aoa)][IDTPIR][G][TPIBQDWG] | [RR][IDTPIR][GG][TPI(Har)QEW][Dpr(Ser)][SLZTDIETPG] [BI150-2mod]					IgG specific B cell response in human PBMC (in words) (human PBMC; IgG): recognised by human memory cells; IgM B cell proliferation in human PBMC (in words) (human PBMC; IgM): able to induce proliferation of IgM B cells
[WWGC][TDIET][CG][IDTPIR][G][TPIBQDWG] [BI100CGcyc]	125	25	25	induced an immune response	
